How the values were obtained:
[1] = target: T1, PKS12 (Mycobacterium tuberculosis, UniProt I6XD69)
[2] = target: T1, PKS12; remark: listed apart in the source

T1 sequence (I6XD69 whole entry): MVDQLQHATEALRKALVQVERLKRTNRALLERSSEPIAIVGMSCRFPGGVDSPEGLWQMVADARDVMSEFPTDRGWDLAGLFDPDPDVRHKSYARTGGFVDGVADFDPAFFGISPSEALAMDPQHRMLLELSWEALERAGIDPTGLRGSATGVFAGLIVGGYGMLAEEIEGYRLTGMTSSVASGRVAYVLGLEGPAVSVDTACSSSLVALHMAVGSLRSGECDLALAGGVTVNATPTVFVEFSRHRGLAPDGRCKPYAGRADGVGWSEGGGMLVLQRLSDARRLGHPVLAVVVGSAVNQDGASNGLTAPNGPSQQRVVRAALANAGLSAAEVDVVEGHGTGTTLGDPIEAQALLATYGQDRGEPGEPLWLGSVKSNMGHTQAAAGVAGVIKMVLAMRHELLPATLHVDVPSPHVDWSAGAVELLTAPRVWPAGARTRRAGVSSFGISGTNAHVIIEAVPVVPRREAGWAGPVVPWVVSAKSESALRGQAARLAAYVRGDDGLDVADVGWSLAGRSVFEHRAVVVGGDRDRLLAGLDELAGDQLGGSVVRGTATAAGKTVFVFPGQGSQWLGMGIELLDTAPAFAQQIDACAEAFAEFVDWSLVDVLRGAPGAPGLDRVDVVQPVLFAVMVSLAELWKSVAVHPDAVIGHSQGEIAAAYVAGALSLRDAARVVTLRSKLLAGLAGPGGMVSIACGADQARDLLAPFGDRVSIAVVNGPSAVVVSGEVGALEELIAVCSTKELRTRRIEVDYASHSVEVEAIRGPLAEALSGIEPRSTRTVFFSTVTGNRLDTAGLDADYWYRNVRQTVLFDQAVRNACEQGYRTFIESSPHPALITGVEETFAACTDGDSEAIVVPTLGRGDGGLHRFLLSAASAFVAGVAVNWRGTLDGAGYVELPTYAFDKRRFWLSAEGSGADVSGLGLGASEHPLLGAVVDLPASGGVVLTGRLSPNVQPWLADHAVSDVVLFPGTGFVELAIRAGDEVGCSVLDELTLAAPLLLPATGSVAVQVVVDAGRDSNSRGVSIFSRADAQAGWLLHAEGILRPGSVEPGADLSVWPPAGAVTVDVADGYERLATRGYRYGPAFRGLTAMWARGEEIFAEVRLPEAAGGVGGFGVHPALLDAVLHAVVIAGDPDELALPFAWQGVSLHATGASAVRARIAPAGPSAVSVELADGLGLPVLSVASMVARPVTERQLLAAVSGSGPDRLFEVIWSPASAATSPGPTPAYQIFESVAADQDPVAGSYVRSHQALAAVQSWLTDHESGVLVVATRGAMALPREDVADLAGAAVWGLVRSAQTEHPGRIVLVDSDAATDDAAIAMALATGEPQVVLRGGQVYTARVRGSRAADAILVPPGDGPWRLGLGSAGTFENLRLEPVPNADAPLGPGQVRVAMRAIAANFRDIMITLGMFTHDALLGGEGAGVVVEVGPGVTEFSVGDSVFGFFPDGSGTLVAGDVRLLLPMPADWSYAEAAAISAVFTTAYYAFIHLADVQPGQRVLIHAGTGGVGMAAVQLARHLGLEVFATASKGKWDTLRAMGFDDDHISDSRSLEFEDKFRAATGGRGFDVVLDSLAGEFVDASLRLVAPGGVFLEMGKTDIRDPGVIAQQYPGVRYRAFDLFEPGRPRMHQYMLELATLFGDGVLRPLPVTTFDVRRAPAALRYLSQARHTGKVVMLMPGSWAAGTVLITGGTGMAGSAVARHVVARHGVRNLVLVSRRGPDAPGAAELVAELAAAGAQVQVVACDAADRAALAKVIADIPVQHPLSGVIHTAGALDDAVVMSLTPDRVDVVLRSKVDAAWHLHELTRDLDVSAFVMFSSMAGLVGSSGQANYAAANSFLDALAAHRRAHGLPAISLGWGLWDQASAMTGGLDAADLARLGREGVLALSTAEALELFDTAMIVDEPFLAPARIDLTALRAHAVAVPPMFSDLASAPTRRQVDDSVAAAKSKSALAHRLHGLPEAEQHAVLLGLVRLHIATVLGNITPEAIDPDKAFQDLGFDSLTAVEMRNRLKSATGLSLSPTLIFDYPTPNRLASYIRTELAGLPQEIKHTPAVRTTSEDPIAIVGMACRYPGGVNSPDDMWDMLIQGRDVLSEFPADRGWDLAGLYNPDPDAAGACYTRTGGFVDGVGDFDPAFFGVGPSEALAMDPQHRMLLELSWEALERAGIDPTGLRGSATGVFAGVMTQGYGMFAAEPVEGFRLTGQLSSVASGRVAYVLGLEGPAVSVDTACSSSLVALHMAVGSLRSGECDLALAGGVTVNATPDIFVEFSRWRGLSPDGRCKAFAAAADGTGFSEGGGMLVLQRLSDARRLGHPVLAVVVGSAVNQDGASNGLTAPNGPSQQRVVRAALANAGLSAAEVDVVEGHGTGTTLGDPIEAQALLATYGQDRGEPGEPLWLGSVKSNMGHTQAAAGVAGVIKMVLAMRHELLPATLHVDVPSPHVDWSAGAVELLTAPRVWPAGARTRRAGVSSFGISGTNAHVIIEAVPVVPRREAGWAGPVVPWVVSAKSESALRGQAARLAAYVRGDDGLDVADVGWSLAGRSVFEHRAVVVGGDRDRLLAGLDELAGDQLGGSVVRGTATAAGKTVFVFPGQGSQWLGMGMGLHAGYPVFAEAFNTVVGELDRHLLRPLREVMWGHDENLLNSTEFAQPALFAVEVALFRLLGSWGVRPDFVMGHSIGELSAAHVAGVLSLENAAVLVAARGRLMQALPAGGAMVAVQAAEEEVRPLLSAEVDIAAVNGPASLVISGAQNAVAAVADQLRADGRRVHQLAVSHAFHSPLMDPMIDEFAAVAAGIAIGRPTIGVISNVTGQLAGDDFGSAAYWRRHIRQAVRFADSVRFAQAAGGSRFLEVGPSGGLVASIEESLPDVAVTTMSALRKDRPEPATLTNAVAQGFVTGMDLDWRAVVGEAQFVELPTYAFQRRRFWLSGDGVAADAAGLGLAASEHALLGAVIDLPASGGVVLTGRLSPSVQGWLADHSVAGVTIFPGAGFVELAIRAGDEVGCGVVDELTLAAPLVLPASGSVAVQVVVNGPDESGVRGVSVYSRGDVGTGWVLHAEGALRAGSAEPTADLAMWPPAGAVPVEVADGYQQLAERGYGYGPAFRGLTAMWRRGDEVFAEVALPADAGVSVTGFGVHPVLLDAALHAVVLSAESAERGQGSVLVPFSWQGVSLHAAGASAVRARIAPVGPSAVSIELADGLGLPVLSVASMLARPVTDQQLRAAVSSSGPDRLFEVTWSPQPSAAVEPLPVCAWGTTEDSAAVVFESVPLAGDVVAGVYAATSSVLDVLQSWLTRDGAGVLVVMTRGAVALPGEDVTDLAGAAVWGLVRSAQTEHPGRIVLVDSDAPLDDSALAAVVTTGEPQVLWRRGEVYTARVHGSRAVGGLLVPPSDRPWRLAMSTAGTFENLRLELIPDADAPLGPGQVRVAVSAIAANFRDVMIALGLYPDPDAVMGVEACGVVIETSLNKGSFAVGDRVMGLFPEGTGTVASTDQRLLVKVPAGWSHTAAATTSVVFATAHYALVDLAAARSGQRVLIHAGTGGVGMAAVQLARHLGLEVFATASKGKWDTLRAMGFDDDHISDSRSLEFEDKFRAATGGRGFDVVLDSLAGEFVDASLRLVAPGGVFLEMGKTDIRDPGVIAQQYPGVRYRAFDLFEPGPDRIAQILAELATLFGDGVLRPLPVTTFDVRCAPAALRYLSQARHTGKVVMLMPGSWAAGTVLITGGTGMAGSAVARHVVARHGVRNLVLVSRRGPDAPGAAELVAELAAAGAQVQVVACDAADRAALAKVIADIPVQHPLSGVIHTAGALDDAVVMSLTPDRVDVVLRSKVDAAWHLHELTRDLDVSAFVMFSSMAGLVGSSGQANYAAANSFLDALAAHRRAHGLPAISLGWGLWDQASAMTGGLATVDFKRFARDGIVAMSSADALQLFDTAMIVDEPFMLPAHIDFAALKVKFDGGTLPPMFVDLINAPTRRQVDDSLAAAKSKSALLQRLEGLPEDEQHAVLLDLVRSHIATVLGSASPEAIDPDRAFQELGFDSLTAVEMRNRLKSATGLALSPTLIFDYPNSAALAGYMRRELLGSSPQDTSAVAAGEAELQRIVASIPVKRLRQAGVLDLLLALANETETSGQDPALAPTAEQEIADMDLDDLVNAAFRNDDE

SMILES	inhibition at 100 μM [1]	14C labelling of protein, SDS-PAGE phosphorimaging [2]
C/C=C/C/C=C/CCC(=O)[C@H]1O[C@H]1C(N)=O [cerulenin]	incubation of PKS12 protein with KS inhibitor cerulenin showed no radioactive bands	
CC(C)(COP(=O)(O)OP(=O)(O)OC[C@H]1O[C@@H](n2cnc3c(N)ncnc32)[C@H](O)[C@@H]1OP(=O)(O)O)[C@@H](O)C(=O)NCCC(=O)NCCSC(=O)CC(=O)O [malonyl CoA]		SDS-PAGE gel-binding assays clearly showed that PKS12 could be radiolabeled with both of these substrates
CC(C(=O)O)C(=O)SCCNC(=O)CCNC(=O)[C@H](O)C(C)(C)COP(=O)(O)OP(=O)(O)OC[C@H]1O[C@@H](n2cnc3c(N)ncnc32)[C@H](O)[C@@H]1OP(=O)(O)O (stereo partly drawn) [methylmalonyl CoA]		SDS-PAGE gel-binding assays clearly showed that PKS12 could be radiolabeled with both of these substrates

Source: PMC2443190, “Novel Intermolecular Iterative Mechanism for Biosynthesis of Mycoketide Catalyzed by a Bimodular Polyketide Synthase” (PLoS Biology, 2008)
